The subject of series [1] is Spodoptera litura. The series can be described thus: Insecticidal activity against Spodoptera litura in compound treated chinese cabbage leaves assessed as mortality after foliar dipping at 100 mg/l at 25 degC measured after 120 hr. The format is functional.
Series [2] has as its system Spodoptera litura. Description: Insecticidal activity against Spodoptera litura in compound treated chinese cabbage leaves assessed as mortality after foliar dipping at 10 mg/l at 25 degC measured after 120 hr. The format is functional.
For series [3], the system named is Myzus persicae. The series can be described thus: Insecticidal activity against Myzus persicae (green peach aphid) in compound treated chinese cabbage leaves assessed as mortality after foliar dipping at 10 mg/l at 25 degC measured after 120 hr. The format is functional.
Series [4] is described as follows: Octanol-water partition coefficient, log P of the compound. In kind it is physicochemical.
Series [5] has as its system Myzus persicae. Description: Insecticidal activity against Myzus persicae (green peach aphid) in compound treated chinese cabbage leaves assessed as mortality after foliar dipping at 100 mg/l at 25 degC measured after 120 hr. The format is functional.
For series [6], the system named is Nilaparvata lugens. Description: Insecticidal activity against Nilaparvata lugens (brown planthopper) in rice seedlings assessed as mortality measured on day 3 after foliar treatment by residual insecticidal activity assay. The format is functional, organism-based.
The subject of series [7] is Nilaparvata lugens. Description: Insecticidal activity against Nilaparvata lugens (brown planthoppers) in rice seedlings root dipped in compound assessed as mortality at 100 mg/l measured after 7 days of drench application by systemic insecticidal activity assay. The format is functional, organism-based.
In series [8] the test system is Nilaparvata lugens. Description: Insecticidal activity against Nilaparvata lugens (brown plant hoppers) in rice seedlings root dipped in compound assessed as mortality at 100 mg/l measured after 14 days of drench application by systemic insecticidal activity assay. The format is functional, organism-based.
Series [9] has as its system Nilaparvata lugens. Description: Insecticidal activity against Nilaparvata lugens (brown planthoppers) in rice seedlings root dipped in compound assessed as mortality at 100 mg/l measured after 3 days of drench application by systemic insecticidal activity assay. In kind it is functional, organism-based.
The subject of series [10] is Myzus persicae. Description: Insecticidal activity against Myzus persicae (green peach aphid) in compound treated chinese cabbage leaves assessed as mortality at 10 mg/l measured on day 3 after foliar treatment by residual insecticidal activity assay. In kind it is functional, organism-based.
The test system of series [11] is Plutella xylostella. The series can be described thus: Insecticidal activity against Plutella xylostella (diamondback moth) in compound treated cabbage leaves assessed as mortality at 10 mg/l measured on day 3 after foliar treatment by residual insecticidal activity assay. The format is functional, organism-based.
For series [12], the system named is Plutella xylostella. Description: Insecticidal activity against Plutella xylostella (diamondback moth) assessed as mortality after soil treatment on third day of infestation. In kind it is functional, organism-based.
The test system of series [13] is Myzus persicae. Description: Insecticidal activity against Myzus persicae (green peach aphid) assessed as mortality after soil treatment at 25 degC measured after 11th day of infestation. The format is functional, organism-based.

Activity calls are given as the source filed them. The calls are words filed in the database; no cut-off is given here.

Regarding `O=[N+]([O-])/N=C1\N(CCCN2CCN(Cc3ccc(Cl)nc3)/C2=N/[N+](=O)[O-])CCN1Cc1ccc(Cl)nc1`, the mortality (usually the percentage killed) at 100 µg/mL in the series on Spodoptera litura [1] is 80%; in the series with Myzus persicae [5] it was 27%. Further, the mortality at 10 µg/mL with Spodoptera litura [2] and with Myzus persicae [3] was 13% in each case. For the same molecule, the logP (usually a log measure of how a compound divides between an organic and an aqueous phase) in series [4] (read-out: logP) came to 4.35.

Take `O=[N+]([O-])/N=C1\N(CCCCCCCCCCN2CCN(Cc3ccc(Cl)nc3)/C2=N/[N+](=O)[O-])CCN1Cc1ccc(Cl)nc1`: the mortality at 100 µg/mL in the series with Spodoptera litura [1] turned out to be 27%; in the series on Myzus persicae [5], 43%. The mortality at 10 µg/mL with Spodoptera litura [2] came out at 0%; in the series with Myzus persicae [3] it was 27%. In [4] (read-out: logP), the logP stood at 5.76.

Regarding `O=[N+]([O-])/N=C1\N(CCCCN2CCN(Cc3ccc(Cl)nc3)/C2=N/[N+](=O)[O-])CCN1Cc1ccc(Cl)nc1`, the results for the mortality at 100 µg/mL with Spodoptera litura [1] and with Myzus persicae [5] were 57% and 7%, respectively. For the same molecule, the mortality at 10 µg/mL with Spodoptera litura [2] was 7%; with Myzus persicae [3] it was 0%. In addition, the logP in series [4] (read-out: logP) is 4.56.

Take `O=[N+]([O-])/N=C1\N(CCCCCN2CCN(Cc3ccc(Cl)nc3)/C2=N/[N+](=O)[O-])CCN1Cc1ccc(Cl)nc1`: the mortality at 100 µg/mL stood at 40% in the series with Spodoptera litura [1] and 13% in the series on Myzus persicae [5]. The mortality at 10 µg/mL in the series on Spodoptera litura [2] and in the series with Myzus persicae [3] was 0% each time. Moreover, the logP in series [4] (read-out: logP) is 4.77.

For the molecule `O=[N+]([O-])/N=C1\N(CCCCCCCCCCCCN2CCN(Cc3ccc(Cl)nc3)/C2=N/[N+](=O)[O-])CCN1Cc1ccc(Cl)nc1`, the mortality at 100 µg/mL came to 0% in the series with Spodoptera litura [1] and 50% in the series with Myzus persicae [5]. The results for the mortality at 10 µg/mL in the series on Spodoptera litura [2] and in the series on Myzus persicae [3] were 0% and 19%, respectively. Further, the logP in [4] (read-out: logP) amounted to 6.14.

For the molecule `O=[N+]([O-])/N=C1\N(CCCCCCCCCN2CCN(Cc3ccc(Cl)nc3)/C2=N/[N+](=O)[O-])CCN1Cc1ccc(Cl)nc1`, the mortality at 100 µg/mL in the series on Spodoptera litura [1] was 57%; in the series with Myzus persicae [5], 93%. Moreover, the values for the mortality at 10 µg/mL with Spodoptera litura [2] and in the series on Myzus persicae [3] were 3% and 77%, respectively. Further, the lipophilicity (logP) in [4] (read-out: logP) was 5.57.

Regarding `O=[N+]([O-])/N=C1\N(CCN2CCN(Cc3ccc(Cl)nc3)/C2=N/[N+](=O)[O-])CCN1Cc1ccc(Cl)nc1`, the results for the mortality at 100 µg/mL in the series on Spodoptera litura [1] and with Myzus persicae [5] were 20% and 97%, respectively. For the same molecule, the mortality at 10 µg/mL is 0% in the series with Spodoptera litura [2] and 23% in the series with Myzus persicae [3]. The logP in series [4] (read-out: logP) was 4.13.

In the case of `O=[N+]([O-])/N=C1\N(CCCCCCCCN2CCN(Cc3ccc(Cl)nc3)/C2=N/[N+](=O)[O-])CCN1Cc1ccc(Cl)nc1`, the mortality at 100 µg/mL turned out to be 80% with Spodoptera litura [1] and 97% in the series with Myzus persicae [5]. Further, the mortality at 10 µg/mL in the series on Spodoptera litura [2] came to 27%; with Myzus persicae [3] it was 83%. For the same molecule, the log partition coefficient (logP) in [4] (read-out: logP) turned out to be 5.37.

For `O=[N+]([O-])/N=C1\N(CCCCCCN2CCN(Cc3ccc(Cl)nc3)/C2=N/[N+](=O)[O-])CCN1Cc1ccc(Cl)nc1`, the values for the mortality at 100 µg/mL in the series on Spodoptera litura [1] and with Myzus persicae [5] were 83% and 23%, respectively. Also, the result in the series on Nilaparvata lugens [6], in the series on Myzus persicae [10] and in the series with Plutella xylostella [11] was Active. Moreover, the mortality at 10 µg/mL was 27% in the series with Spodoptera litura [2] and 10% in the series on Myzus persicae [3]. Moreover, the inhibition entry with Nilaparvata lugens [7], in the series on Nilaparvata lugens [8] and with Nilaparvata lugens [9] was “Active” in each case. Also, in series [4] (read-out: logP), the log partition coefficient (logP) was 4.97.

`O=[N+]([O-])/N=C1\N(CCCCCCCN2CCN(Cc3ccc(Cl)nc3)/C2=N/[N+](=O)[O-])CCN1Cc1ccc(Cl)nc1`: the mortality at 100 µg/mL was 85% in the series with Spodoptera litura [1] and 97% in the series with Myzus persicae [5]. Also, the outcome with Nilaparvata lugens [6], with Myzus persicae [10] and in the series with Plutella xylostella [11] was Active. Further, the mortality at 10 µg/mL came to 23% with Spodoptera litura [2] and 93% in the series on Myzus persicae [3]. The inhibition result in the series on Nilaparvata lugens [7], with Nilaparvata lugens [8], in the series with Nilaparvata lugens [9], in the series on Plutella xylostella [12] and in the series with Myzus persicae [13] was “Active” each time. The log partition coefficient (logP) in series [4] (read-out: logP) came out at 5.18.

Consider `O=[N+]([O-])/N=C1\N(Cc2ccc(CN3CCN(Cc4ccc(Cl)nc4)/C3=N/[N+](=O)[O-])cc2)CCN1Cc1ccc(Cl)nc1`, for which the mortality at 100 µg/mL with Spodoptera litura [1] turned out to be 47%; with Myzus persicae [5], 97%. Further, the mortality at 10 µg/mL in the series on Spodoptera litura [2] amounted to 3%; with Myzus persicae [3] it was 97%. The logP in [4] (read-out: logP) worked out at 5.69.

Consider `O=[N+]([O-])NC1=NCCN1Cc1ccc(Cl)nc1` [IMIDACLOPRID], for which the mortality at 100 µg/mL with Spodoptera litura [1] worked out at 97%; in the series on Myzus persicae [5], 100%. The values for the mortality at 10 µg/mL in the series on Spodoptera litura [2] and in the series with Myzus persicae [3] were 17% and 100%, respectively. This molecule yielded a logP in [4] of 1.88.

Turning to `O=[N+]([O-])/N=C1/N(Cc2ccc(Cl)nc2)CCN1Cc1cccc(CN2CCN(Cc3ccc(Cl)nc3)/C2=N/[N+](=O)[O-])c1`, the results for the mortality at 100 µg/mL in the series with Spodoptera litura [1] and in the series with Myzus persicae [5] were 47% and 57%, respectively. The mortality at 10 µg/mL was 3% in the series with Spodoptera litura [2] and 33% with Myzus persicae [3]. Besides, in series [4] (read-out: logP), the logP came out at 5.69.

The record behind these values is ChEMBL document CHEMBL3044942, “Unexpected plant-systemic insecticidal properties of alkylene-tethered bis-imidacloprid derivatives” (J Pestic Sci, 2010).
